Data reported in article PMC4102012 (Current chemical biology, 2013).
Values joined by “and” are separate entries in the source; they are usually repeats but may differ in a detail not shown here. Identical values can stand only once. Like-named read-outs stand apart in the source and are kept apart here.

Legend:
[1] = biological target: T1, human porphobilinogen synthase (HsPBGS) (Homo sapiens, UniProt P13716, C162A/K59N); experiment: biochemical; type: biochemical
T1 sequence (P13716 1-330 K59N/C162A): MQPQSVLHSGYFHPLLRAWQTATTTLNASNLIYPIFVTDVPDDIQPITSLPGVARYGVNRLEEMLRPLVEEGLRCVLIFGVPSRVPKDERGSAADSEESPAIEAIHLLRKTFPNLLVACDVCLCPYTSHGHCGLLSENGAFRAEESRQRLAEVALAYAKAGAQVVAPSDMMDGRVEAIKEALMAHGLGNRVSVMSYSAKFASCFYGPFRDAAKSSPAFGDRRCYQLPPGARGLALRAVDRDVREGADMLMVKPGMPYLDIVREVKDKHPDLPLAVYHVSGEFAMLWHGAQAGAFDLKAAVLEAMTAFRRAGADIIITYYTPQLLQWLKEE

[2] = biological target: T2, HsPBGS oligomeric equilibrium (hexamer/octamer) (Homo sapiens, UniProt P13716, C162A/K59N); conditions: for Effect on HsPBGS oligomeric distribution, in words: native PAGE
T2 sequence (P13716 1-330 K59N/C162A): T1 sequence (P13716 1-330 K59N/C162A)

[3] = biological target: T2, HsPBGS oligomeric equilibrium (hexamer/octamer); experiment: Initial native PAGE screen of the NTP library; conditions: 2 mM compound, 40 °C 30 min
[4] = biological target: T3, PBGS from Pisum sativum (green pea) (Pisum sativum, UniProt P30124); experiment: Inhibition of PBGS from Pisum sativum; type: biochemical; conditions: data not shown
T3 sequence (P30124 1-398): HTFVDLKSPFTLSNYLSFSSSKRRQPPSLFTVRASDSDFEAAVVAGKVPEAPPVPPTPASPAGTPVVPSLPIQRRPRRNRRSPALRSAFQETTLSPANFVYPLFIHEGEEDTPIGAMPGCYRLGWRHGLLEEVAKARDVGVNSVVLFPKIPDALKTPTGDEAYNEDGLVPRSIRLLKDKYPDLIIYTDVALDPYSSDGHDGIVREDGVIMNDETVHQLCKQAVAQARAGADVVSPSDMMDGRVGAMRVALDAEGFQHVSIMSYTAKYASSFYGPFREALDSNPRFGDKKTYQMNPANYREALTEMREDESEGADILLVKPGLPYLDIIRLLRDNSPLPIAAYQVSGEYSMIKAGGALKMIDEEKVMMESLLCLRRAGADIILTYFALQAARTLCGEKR

[5] = biological target: PBGS from Pseudomonas aeruginosa (Pseudomonas aeruginosa, UniProt Q59643); experiment: Inhibition of PBGS from Pseudomonas aeruginosa; type: biochemical; conditions: data not shown
Sequence of PBGS from Pseudomonas aeruginosa (Q59643 whole entry): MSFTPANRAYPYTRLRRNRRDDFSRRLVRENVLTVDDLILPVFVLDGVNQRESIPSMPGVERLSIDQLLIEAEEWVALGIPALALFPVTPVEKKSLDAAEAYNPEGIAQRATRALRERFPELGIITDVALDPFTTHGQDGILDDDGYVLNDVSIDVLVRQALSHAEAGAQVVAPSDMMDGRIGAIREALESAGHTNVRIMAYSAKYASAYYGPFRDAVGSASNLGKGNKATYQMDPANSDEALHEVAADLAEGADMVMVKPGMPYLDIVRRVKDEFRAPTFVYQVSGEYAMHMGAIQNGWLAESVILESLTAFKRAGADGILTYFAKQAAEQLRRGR

[6] = tested on: PBGS from Yersinia enterocolitica; experiment: Inhibition of PBGS from Yersinia enterocolitica; type: biochemical; conditions: data not shown
HsPBGS = conditions: Johns Hopkins Clinical Compounds Library, native PAGE; ref [15]; cited from earlier work
[7] = reagents compatible with the HsPBGS activity assay
[8] = percentage of HsPBGS hexamer at 20 mM compound, 42 °C 1 h, no substrate
[9] = fit of the inhibition curve, 0 = hyperbolic decay to zero
[10] = preincubation 42 °C 1 h, 10 μg/mL HsPBGS, 10 mM substrate, final pH 7.8
[11] = at 3 mM compound, sum of hexameric and dimeric bands (~2:1) (footnote f)
[12] = at 2 mM compound (highest concentration, footnote d)

Structure (SMILES): O=Cc1ccc(Cl)cc1Cl [2,4-Dichlorobenzaldehyde]
- IC50 [1]: 107 ± 4 µM
- Inhibition of HsPBGS activity, in words [1]: very poor inhibitors of HsPBGS activity
- Effect on HsPBGS oligomeric distribution, in words [2]: very effective at stabilizing the HsPBGS hexamer
- Mole Fraction Hexamer max (obsd) [2, 8]: 86.2 ± 0.7%
- Result of initial screen (increase of mole fraction of hexamer) [3]: preliminary hits

Structure (SMILES): O=Cc1c(Cl)cccc1Cl [2,6-Dichlorobenzaldehyde]
- FAmin (minimum fractional activity derived from the titration) [1]: 0%
- IC50 [1]: 15.2 ± 1.5 µM
- Mole Fraction Hexamer max (obsd) [2]: 100% and 100 ± 0%

Structure (SMILES): O=Cc1ccccc1Cl [2-Chlorobenzaldehyde]
- IC50 [1]: 44.6 ± 4.9 µM
- FAmin (minimum fractional activity derived from the titration) [1, 9]: 0%
- Mole Fraction Hexamer max (obsd) [2, 8]: 91.8 ± 0.5%

Structure (SMILES): O=Cc1ccc(Cl)c(Cl)c1 [3,4-Dichlorobenzaldehyde]
- IC50 [1]: 26.6 ± 2 µM
- FAmin (minimum fractional activity derived from the titration) [1, 9]: 0%
- Mole Fraction Hexamer max (obsd) [2, 8]: 30.4 ± 2.2%

Structure (SMILES): O=Cc1cccc(Br)c1 [3-Bromobenzaldehyde]
- IC50 [1]: 21.5 ± 3.5 µM
- Inhibition of HsPBGS activity, in words [1]: very poor inhibitors of HsPBGS activity
- FAmin (minimum fractional activity derived from the titration) [1, 9]: 80.8 ± 1.2%
- Effect on HsPBGS oligomeric distribution, in words [2]: very effective at stabilizing the HsPBGS hexamer
- Mole Fraction Hexamer max (obsd) [2, 8]: 89.9 ± 3.4%
- Result of initial screen (increase of mole fraction of hexamer) [3]: preliminary hits

Structure (SMILES): CC(=O)[O-].CC(=O)[O-].[Cd+2] [Cadmium acetate]
- FAmin (minimum fractional activity derived from the titration) [1, 9]: 16.7 ± 4.0%
- IC50 [1, 10]: 3.6 ± 0.7 µM
- Mole Fraction Hexamer max (obsd) [2, 11]: 92.2 ± 0.6 ^f %

Structure (SMILES): [Cl][Cd][Cl] [Cadmium chloride]
- FAmin (minimum fractional activity derived from the titration) [1, 9]: 9.2 ± 4.5%
- IC50 [1, 10]: 6.9 ± 1.2 µM
- Mole Fraction Hexamer max (obsd) [2, 11]: 94.9 ± 3.3 ^f %

Structure (SMILES): O=C1[C@H]2CC=CC[C@H]2C(=O)N1SC(Cl)(Cl)Cl [Captan, (3aR,7aS)-2-[(trichloromethyl)sulfanyl]-3a,4,7,7a-tetrahydro-1H-isoindole-1,3(2H)-dione]
- IC50 [1]: 3 ± 0.3 µM
- FAmin (minimum fractional activity derived from the titration) [1, 9]: 0%
- Mole Fraction Hexamer max (obsd) [2, 12]: 72.3 ± 0.3% and 72.3 ± 0.2 ^d %

Structure (SMILES): c1cc(OCC2CO2)cc(OCC2CO2)c1 (stereo not drawn) [Diglycidyl resorcinol ether]
- IC50 [1]: 36.3 ± 2.4 µM
- FAmin (minimum fractional activity derived from the titration) [1, 9]: 0%
- Mole Fraction Hexamer max (obsd) [2, 8]: 87.4 ± 2.7%

Structure (SMILES): COC(=O)c1ccc(C=O)cc1 [Methyl-p-formyl benzoate]
- FAmin (minimum fractional activity derived from the titration) [1, 9]: 0%
- IC50 [1, 10]: 40.3 ± 0.9 µM
- Mole Fraction Hexamer max (obsd) [2, 8]: 86.5 ± 1.4%

Structure (SMILES): O=C1OC(O)C(C(Cl)Cl)=C1Cl (stereo not drawn) [Mutagen X, 3-chloro-4-(dichloromethyl)-5-hydroxy-2(5H-furanone)]
- FAmin (minimum fractional activity derived from the titration) [1, 9]: 0%
- IC50 [1, 10]: 1.4 ± 0.1 µM
- Effect on HsPBGS oligomeric distribution, in words [2]: increase the ratio of hexamer to octamer
- Inhibition potency relative to HsPBGS, in words [4]: comparable potency
- Inhibition potency relative to HsPBGS, in words [5]: comparable potency
- Inhibition potency relative to HsPBGS, in words [6]: comparable potency

Structure (SMILES): CNc1ccc(O)cc1.CNc1ccc(O)cc1.O=S(=O)(O)O [N-methyl-p-aminophenol sulfate]
- FAmin (minimum fractional activity derived from the titration) [1, 9]: 0%
- IC50 [1, 10]: 13.7 ± 1.3 µM
- Mole Fraction Hexamer max (obsd) [2, 8]: 68.1 ± 0.9%

Structure (SMILES): O=C1CN(/N=C/c2ccc([N+](=O)[O-])o2)C(=O)N1 [Nitrofurantoin, (E)-1-[(5-nitro-2-furyl)methylideneamino]imidazolidine-2,4-dione, reference compound]
- FAmin (minimum fractional activity derived from the titration) [1]: 0%
- IC50 [1]: 5.9 ± 0.4 µM
- Result of previous library screen (HsPBGS): not identified as a hit

Structure (SMILES): NC(=O)NN=Cc1ccc([N+](=O)[O-])o1 [Nitrofurazone, 5-nitro-2-furaldehyde semicarbazone, reference compound]
- FAmin (minimum fractional activity derived from the titration) [1, 9]: 0%
- Mole Fraction Hexamer max (obsd) [2, 12]: 48.5 ± 0.3 ^d %
- Mole Fraction Hexamer max (obsd) ([2]; at 2 mM compound (highest concentration, footnote d), listed as nitrofurazone): 48.5 ± 0.3%
- Result of previous library screen (HsPBGS): identified as a hexamer-stabilizing HsPBGS inhibitor

Structure (SMILES): CC1=C2[C@H](/C=C(\C)C(=O)O)CC[C@@H](C)[C@H]2CC1 [Valerenic acid, (2E)-3-[(4S,7R,7aR)-3,7-dimethyl-2,4,5,6,7,7a-hexahydro-1H-inden-4-yl]-2-methylacrylic acid]
- IC50 [1]: 8.2 ± 1.7 µM
- FAmin (minimum fractional activity derived from the titration) [1, 9]: 33.2 ± 3.9%
- Mole Fraction Hexamer max (obsd) [2, 8]: 64.1 ± 0.9%
- Result of initial screen (increase of mole fraction of hexamer) [3]: preliminary hits

Structure (SMILES): [Cd+2].[O-2] [cadmium oxide]
- Result of initial screen (increase of mole fraction of hexamer) [3]: preliminary hits
- Solubility, in words [7]: insolubility in reagents compatible with the HsPBGS activity assay

Structure (SMILES): N.N.[Cl][Pt][Cl] [cis-Dichlorodiamine platinum, (SP-4-2)-diamminedichloridoplatinum, reference compound]
- FAmin (minimum fractional activity derived from the titration) [1, 9]: 0%
- IC50 [1, 10]: 17.1 ± 1.5 µM
- Mole Fraction Hexamer max (obsd) ([2]; at 1 mM compound (footnote e), higher concentrations precipitate HsPBGS): 53.0 ± 0.8 ^e %

Structure (SMILES): O=[N+]([O-])c1cccc(CCl)c1 [m-Nitrobenzyl chloride]
- FAmin (minimum fractional activity derived from the titration) [1, 9]: 0%
- IC50 [1, 10]: 27.1 ± 2.2 µM
- Mole Fraction Hexamer max (obsd) [2, 8]: 79.8 ± 1.3%

Structure (SMILES): C=Cc1ccc(C=C)cc1 [p-divinyl benzene]
- Result of initial screen (increase of mole fraction of hexamer) [3]: preliminary hits
- Solubility, in words [7]: insolubility in reagents compatible with the HsPBGS activity assay

Structure (SMILES): O=C/C=C/c1ccccc1 [trans-cinnamaldehyde]
- Result of initial screen (increase of mole fraction of hexamer) [3]: preliminary hits
